Source: the CheMixHub viscosity set

Assay: xn = mol fraction of the nth substance listed

CC(C)CO + CS(C)=O
viscosity [mPa·s], 101.3 kPa
Details	x2 = 0.0944	x2 = 0.1917	x2 = 0.289	x2 = 0.3884	x2 = 0.4863	x2 = 0.5874	x2 = 0.6887	x2 = 0.7913	x2 = 0.8951
298.15 K	2.785	2.366	2.056	1.934	1.879	1.853	1.858	1.891	1.918
303.15 K	2.424	2.071	1.847	1.754	1.703	–	1.686	1.693	1.733

CCCCCOC(C)=O + C1COCCO1
303.15 K, 101.3 kPa
Details	viscosity [mPa·s]
x2 = 0.0981	0.7721
x2 = 0.2981	0.8134
x2 = 0.505	0.8719
x2 = 0.7018	0.9452
x2 = 0.9003	1.037

C=CC(=O)OC + CCCCCCO
viscosity [mPa·s], 101.33 kPa
Details	308.15 K	318.15 K
x1 = 0.0466	2.892	2.186
x1 = 0.149	2.128	1.687
x1 = 0.2479	1.616	1.331
x1 = 0.3487	1.247	1.059
x1 = 0.4466	0.989	0.859
x1 = 0.4989	0.881	0.772
x1 = 0.5479	0.795	0.701
x1 = 0.6418	0.662	0.588
x1 = 0.7501	0.549	0.486
x1 = 0.8501	0.472	0.414
x1 = 0.9438	0.417	0.36

C=CC(=O)OC + CCCCn1cc[n+](C)c1.F[B-](F)(F)F
303.15 K, 101 kPa
Details	viscosity [mPa·s]
x2 = 0.5005	16.06
x2 = 0.9242	63.95

C=CC(=O)OCCCC + C1CCOC1
viscosity [mPa·s], 101 kPa
Details	293.15 K	298.15 K	303.15 K	308.15 K	313.15 K	318.15 K
x2 = 0.0712	0.8609	0.8036	0.7505	0.7019	0.6569	0.6143
x2 = 0.1406	0.8246	0.7708	0.721	0.6751	0.6321	0.5913
x2 = 0.208	0.7908	0.7403	0.6935	0.65	0.609	0.5698
x2 = 0.2779	0.7572	0.71	0.6661	0.6249	0.5858	0.5482
x2 = 0.3685	0.7159	0.6727	0.6323	0.594	0.5571	0.5213
x2 = 0.4339	0.6875	0.6471	0.609	0.5727	0.5374	0.5028
x2 = 0.4996	0.6603	0.6225	0.5867	0.5522	0.5182	0.4848
x2 = 0.5642	0.6347	0.5995	0.5657	0.5328	0.5002	0.4677
x2 = 0.6426	0.6053	0.5729	0.5415	0.5104	0.4792	0.4478
x2 = 0.7208	0.5778	0.548	0.5187	0.4893	0.4592	0.4288
x2 = 0.7956	0.553	0.5256	0.4981	0.4701	0.4411	0.4115
x2 = 0.8642	0.5316	0.5063	0.4803	0.4534	0.4253	0.3964
x2 = 0.9322	0.5117	0.4882	0.4637	0.4378	0.4103	0.3819

CCCCCOC(C)=O + O
303.15 K, 101.3 kPa
Details	viscosity [mPa·s]
x2 = 0.0121	0.796
x2 = 0.0385	0.801
x2 = 0.0645	0.805
x2 = 0.0655	0.805
x2 = 0.0854	0.809

C=CC(=O)OC + CCCCCCCCCCCC
viscosity [mPa·s], 100 kPa
Details	x1 = 0.0959	x1 = 0.1996	x1 = 0.3063	x1 = 0.4005	x1 = 0.5043	x1 = 0.603	x1 = 0.7008	x1 = 0.8015	x1 = 0.8993
303.15 K	1.129	1.019	0.916	0.831	0.745	0.67	0.601	0.54	0.486
308.15 K	1.017	0.918	0.825	0.751	0.674	0.611	0.554	0.502	0.458
313.15 K	0.963	0.867	0.779	0.709	0.638	0.58	0.528	0.478	0.438

Cc1ccccc1O + c1ccncc1
viscosity [mPa·s], 101 kPa
Details	x1 = 0.09109	x1 = 0.1923	x1 = 0.2702	x1 = 0.3823	x1 = 0.4812	x1 = 0.5958	x1 = 0.7186	x1 = 0.8145	x1 = 0.8918
293.15 K	1.176	1.556	1.983	2.962	4.455	6.845	9.26	10.04	10.01
303.15 K	1.022	1.35	1.724	2.56	3.625	4.935	6.23	6.565	6.45
313.15 K	0.886	1.148	1.436	2.045	2.75	3.575	4.29	4.415	4.325

CC(C)CO + CC(C)O
viscosity [mPa·s], 101 kPa
Details	x2 = 0.2	x2 = 0.4	x2 = 0.6	x2 = 0.8
293.15 K	3.536	3.163	2.856	2.597
313.15 K	1.923	1.742	1.586	1.449

CCCCCOC(C)=O + CC(=O)c1ccccc1
298.15 K, 101 kPa
Details	viscosity [mPa·s]
x2 = 0.0465	0.802
x2 = 0.0891	0.8174

C=CC(=O)OCCCC + CCOCCOCCO
viscosity [mPa·s], 101 kPa
Details	293.15 K	298.15 K	303.15 K	308.15 K	313.15 K	318.15 K
x2 = 0.0702	0.966	0.899	0.837	0.782	0.733	0.687
x2 = 0.1444	1.059	0.977	0.904	0.839	0.783	0.733
x2 = 0.2183	1.167	1.07	0.986	0.913	0.849	0.791
x2 = 0.2855	1.287	1.175	1.078	0.994	0.92	0.854
x2 = 0.3658	1.453	1.332	1.207	1.108	1.022	0.947
x2 = 0.4403	1.637	1.499	1.346	1.233	1.127	1.039
x2 = 0.5027	1.819	1.649	1.477	1.343	1.227	1.126
x2 = 0.569	2.028	1.817	1.646	1.488	1.351	1.236
x2 = 0.6545	2.363	2.103	1.884	1.697	1.531	1.393
x2 = 0.7189	2.654	2.336	2.079	1.871	1.672	1.527
x2 = 0.787	2.982	2.609	2.295	2.069	1.842	1.681
x2 = 0.8385	3.27	2.85	2.481	2.243	1.992	1.816
x2 = 0.9319	3.843	3.312	2.873	2.586	2.28	2.07

O=C(O)CO + OC[C@@H](O)[C@H](O)[C@@H](O)CO
101.33 kPa, x2 = 0.25
Details	viscosity [mPa·s]
303.15 K	937
313.15 K	446.3
323.15 K	208.9

C=CC(=O)OCCCC + c1ccccc1
viscosity [mPa·s], 101 kPa
Details	x2 = 0.1282	x2 = 0.2182	x2 = 0.2926	x2 = 0.4108	x2 = 0.4964	x2 = 0.5923	x2 = 0.708	x2 = 0.7944	x2 = 0.9032
298.15 K	0.799	0.773	0.749	0.719	0.699	0.679	0.658	0.641	0.62
303.15 K	0.738	0.709	0.686	0.656	0.636	0.618	0.601	0.59	0.574
308.15 K	0.683	0.649	0.625	0.595	0.576	0.564	0.554	0.545	0.531
313.15 K	0.62	0.585	0.565	0.538	0.524	0.51	0.501	0.496	0.485
